Results from ChEMBL document CHEMBL4414655, “Position Effect of Fatty Acid Modification on the Cytotoxicity and Antimetastasis Potential of the Cytotoxic Peptide Lycosin-I” (J Med Chem, 2019).
pIC50: −log10 of the molar value. The source made the active and inactive calls. The rule behind the calls is not given here. Residues, ends and D or L forms follow the SMILES beside them. *: point of attachment. Lauroyl = CCCCCCCCCCCC(=O)*

Columns and labels:
[1] = tested on: A549; assay: Induction of cell membrane disruption in human A549 cells assessed as LDH release at 3.25 uM incubated for 30 mins by fluorescence based assay relative to control
[2] = tested on: A549; assay: Cytotoxicity in human A549 cells assessed as reduction in cell viability by trypan blue staining method; format: functional, cell-based
[3] = tested on: A549; assay: Cytotoxicity in human A549 cells assessed as reduction in cell viability incubated for 24 hrs by CCK8 assay; format: functional, cell-based; settings: A549, 24 h
[4] = species: Homo sapiens; assay: Induction of cell membrane disruption in human erythrocytes cells assessed as induction of hemolysis at 0.098 to 50 uM incubated for 1 hr by fluorescence based assay relative to control; format: cell membranes
[5] = tested on: B16-F10; assay: Cytotoxicity in mouse B16/F10 cells assessed as reduction in cell viability incubated for 24 hrs by CCK8 assay; format: functional, cell-based; settings: B16-F10, 24 h
[6] = tested on: A549; assay: Potency index, ratio of IC50 for lycosin-I to IC50 for test compound for cytotoxicity in human A549 cells assessed as reduction in cell viability at 0.78 to 50 uM incubated for 24 hrs by CCK8 assay; format: functional
[7] = tested on: HEK-293T; assay: Cytotoxicity in human HEK293T cells assessed as reduction in cell viability incubated for 24 hrs by CCK8 assay; format: cell-based; settings: human, hek-293t

CCCCCCCCCCCC(=O)NCCCC[C@H](NC(=O)[C@H](Cc1ccccc1)NC(=O)[C@H](Cc1c[nH]c2ccccc12)NC(=O)CNC(=O)[C@@H](N)CCCCN)C(=O)N[C@@H](C)C(=O)N[C@@H](CCSC)C(=O)N[C@@H](CCCCN)C(=O)N[C@@H](CO)C(=O)N[C@H](C(=O)N[C@@H](C)C(=O)N[C@@H](CCCCN)C(=O)N[C@@H](Cc1ccccc1)C(=O)N[C@H](C(=O)N[C@@H](C)C(=O)N[C@@H](CCCCN)C(=O)N[C@@H](CCC(=O)O)C(=O)N[C@@H](CCCCN)C(=O)N[C@@H](CC(C)C)C(=O)N[C@@H](CCCCN)C(=O)N[C@@H](CCC(=O)O)C(=O)N[C@@H](Cc1cnc[nH]1)C(=O)N[C@@H](CC(C)C)C(=O)O)[C@@H](C)CC)[C@@H](C)CC (H-KGWFK(Lauroyl)AMKSIAKFIAKEKLKEHL-OH)
Activity [1]: 23.1% | Activity [2]: Active | pIC50 [3]: 5.11 | Activity [4]: Active | pIC50 [5]: 5.70 | Ratio IC50 [6]: 4 - 15 | Activity [7]: Toxic

CCCCCCCCCCCC(=O)NCCCC[C@H](NC(=O)[C@H](C)NC(=O)[C@@H](NC(=O)[C@H](CO)NC(=O)[C@H](CCCCN)NC(=O)[C@H](CCSC)NC(=O)[C@H](C)NC(=O)[C@H](CCCCN)NC(=O)[C@H](Cc1ccccc1)NC(=O)[C@H](Cc1c[nH]c2ccccc12)NC(=O)CNC(=O)[C@@H](N)CCCCN)[C@@H](C)CC)C(=O)N[C@@H](Cc1ccccc1)C(=O)N[C@H](C(=O)N[C@@H](C)C(=O)N[C@@H](CCCCN)C(=O)N[C@@H](CCC(=O)O)C(=O)N[C@@H](CCCCN)C(=O)N[C@@H](CC(C)C)C(=O)N[C@@H](CCCCN)C(=O)N[C@@H](CCC(=O)O)C(=O)N[C@@H](Cc1cnc[nH]1)C(=O)N[C@@H](CC(C)C)C(=O)O)[C@@H](C)CC (H-KGWFKAMKSIAK(Lauroyl)FIAKEKLKEHL-OH)
Activity [1]: 38.5% | Activity [2]: Active | pIC50 [3]: 5.31 | Activity [4]: Active | pIC50 [5]: 5.70 | Ratio IC50 [6]: 4 - 15 | Activity [7]: Toxic

CCCCCCCCCCCC(=O)NCCCC[C@H](NC(=O)[C@H](CCC(=O)O)NC(=O)[C@H](CCCCN)NC(=O)[C@H](C)NC(=O)[C@@H](NC(=O)[C@H](Cc1ccccc1)NC(=O)[C@H](CCCCN)NC(=O)[C@H](C)NC(=O)[C@@H](NC(=O)[C@H](CO)NC(=O)[C@H](CCCCN)NC(=O)[C@H](CCSC)NC(=O)[C@H](C)NC(=O)[C@H](CCCCN)NC(=O)[C@H](Cc1ccccc1)NC(=O)[C@H](Cc1c[nH]c2ccccc12)NC(=O)CNC(=O)[C@@H](N)CCCCN)[C@@H](C)CC)[C@@H](C)CC)C(=O)N[C@@H](CC(C)C)C(=O)N[C@@H](CCCCN)C(=O)N[C@@H](CCC(=O)O)C(=O)N[C@@H](Cc1cnc[nH]1)C(=O)N[C@@H](CC(C)C)C(=O)O (H-KGWFKAMKSIAKFIAKEK(Lauroyl)LKEHL-OH)
Activity [1]: 40.2% | Activity [2]: Active | pIC50 [3]: 5.29 | Activity [4]: Active | pIC50 [5]: 5.70 | Ratio IC50 [6]: 4 - 15 | Activity [7]: Toxic
